The text below walks through data of patent US10753901B2, “Integrated sensor for the rapid identification of bacteria using ISFETS” (priority 2012, dated 2020).

For one assay, the system named is E. coli K12 BW25113. The experiment in a line: ISFET chip detection of potassium ion efflux after addition of antibacterial agent, positive control. The class given is cell-based. The conditions noted are these: in SM buffer, compared to negative control BL21, FIG. 12. The protocol: In this example, the bacteriocin Colicin A9 was combined with E. coli K12 BW25113 as the positive control. As negative controls, Colicin A9 was combined with Staphylococcus aureus 8325, and Colicin A9 was combined with Pseudomonas aeruginosa (PA01). Experiments were performed as described above for Example 1, using the ISFET system 600.
In this example, the Polymyxin B antibiotic (PMB) was combined with E. coli K12 BW25113 in SM buffer as the positive control. As the negative control, Polymyxin B antibiotic (PMB) combined with E. coli K12 BL21 (DE3-Δtail) (referred to as BL21) in SM buffer. Experiments were performed as described above for Example 1, using the ISFET system 600.

Assay [1] concerns Staphylococcus aureus 8325. As to the kind of experiment: ISFET chip detection of potassium ion efflux after addition of lysostaphin, positive control. It is filed as cell-based. As to conditions: compared to negative controls E. coli K12 BW25113 and P. aeruginosa (PA01), FIG. 11. The text has this:
In this example, the lysostaphin from Staphylococcus simulans was combined with Staphylococcus aureus 8325 as the positive control. As negative controls, lysostaphin from Staphylococcus simulans was combined with E. coli K12 BW25113, and lysostaphin from Staphylococcus simulans was combined with Pseudomonas aeruginosa (PA01).

With Polymyxin B, the “ISFET output from efflux of potassium ions” value in the assay with E. coli K12 BW25113 was “output increases”.
“lysostaphin: lysostaphin from Staphylococcus simulans”: in assay [1], the “ISFET output from efflux of potassium ions” value is “output increases”.
